Reference: article PMC12909347, “Disconnect between in vitro and in vivo efficacy of the MPS1 inhibitor NTRC 0066-0 against glioblastoma” (Cellular Oncology, 2026)

Legend:
MPS1 = system: MPS1; parameters: method as in PMID 23940287; conditions: reported; cited from earlier work
[1] = system: orthotopic E98 GBM tumors; test: Orthotopic E98 GBM xenograft efficacy in Abcb1a/b;Abcg2-/- mice; assay type: in vivo; conditions: TMZ + RT given at tumor size 10^7-10^8 p/s
Method: Orthotopic GBM tumors were induced in Abcb1a/b; Abcg2^−/− mice by stereotactic injection of E98 cells expressing firefly luciferase (200,000 cells in 2 µL HBSS (Life Technologies) at an injection speed of 1 µL/min) at 2 mm lateral, 1 mm anterior and 3 mm ventral to the bregma. Tumor growth was monitored using bioluminescence imaging by injecting D-luciferin (150 mg/kg i.p.; Promega, Madison, WI) and subsequently imaging mice on an IVIS Spectrum Imaging System (PerkinElmer, Waltham, MA). Survival was monitored daily and the humane endpoint was defined as body weight loss exceeding 20%. Time-to-recurrence was defined as the number of days elapsed until the tumor regained its pre-treatment size. Tumors were treated with CT-guided radiotherapy (2–3.5 Gy per fraction) using an X-RAD 225Cx system (Precision X-Ray, North Branford, CT), temozolomide (10 mg/kg p.o. freshly prepared from powder in an aqueous solution containing 10% v/v ethanol), NTRC0066-0 (20, 10 or 5 mg/kg p.o. in an aqueous solution containing 10% v/v DMSO and 10% v/v Cremophor EL (Life Technologies)) or different combinations thereof, as described per experiment in the Figure legends.

SMILES | IC50s (intrinsic potency) (MPS1) | Tumor bioluminescence signal after regression [1]
COc1cc(N2CCC(O)CC2)ccc1Nc1nc(Nc2ccccc2S(=O)(=O)C(C)C)c2[nH]cnc2n1 [MPS1-IN-3] | micromolar range | 
Cn1nnc2c(C(N)=O)ncn2c1=O [TMZ, temozolomide, reference compound] |  | about 10^5 p/s
